What was measured:
Morris7777 cells [1] = test: Trypan blue staining, total cell number and viability of treated Morris7777 cells; assay type: cell-based, rat; settings: Etoposide 15 μM 24 hours, Sorafenib 0.5 μM 48 hours
Description: (§1) Morris7777 cells: Etoposide 15 μM, for 24 hours; Sorafenib 0.5 μM for 48 hours.
(§2) The treatment protocols were evaluated with a standard cellular method, trypan blue staining which provide the total cell numbers and cell viability.

[2] = as above; assay type: cell-based, rat; settings: rat, Etoposide 15 μM 24 hours, Sorafenib 0.5 μM 48 hours
Description: as §1, §2

Morris7777 cells [3] = test: UV assay of 2-oxoglutarate conversion in treated Morris7777 cells; assay type: cell-based, rat; settings: Etoposide 15 μM 24 hours, Sorafenib 0.5 μM 48 hours, FIG. 10
Description: (§3) The UV assay and conditions used in example 4 were applied. Prior to harvesting the cells have been treated with MS-275, resveratrol, etoposide, or Sorafenib, as follows:
as §1
(§4) Uptake and conversion of 2-oxoglutarate were measured as described in example 4.

[4] = test system: EL-4 xenograft mouse lymphoma model; test: In vivo DNP-MR glutamate signal pre versus post etoposide treatment; set-up: species or system C57BL/6 mouse; settings: single dose Etoposide 2 mg/mouse i.p.; average over 4 mice, FIG. 8
Description: EL-4 xenograft mouse lymphoma model has been selected as test system to verify the ability of detecting tumour response to a DNA targeting therapy. […].
Five million EL-4 cells were suspended in 0.1 mL Roswell Park Memorial Institute (RPMI-1640) medium and subcutaneously injected in the flank of 7 weeks old female C57BL/6 mouse.
DNP experiment has been performed 9-10 days after cells inoculation pre Etoposide treatment and 10-11 days after cells inoculation post single dose Etoposide treatment (a dose of 2 mg/mouse has been i.p. administered by injection of 300 μL of Eposin 20 mg/mL diluted 1:3 in saline solution). DNP sample has been prepared as describes in example 6.

[5] = test system: liver cancer cells (Morris7777); settings: 3.5 mM total substrate, aspartate added, FIG. 13
Description: 10 million liver cancer cells (Morris7777), were harvested and redissolved in 500 μl phosphate buffer (PBS).
The acquisition was started just before injection of the hyperpolarized substrates.

[6] = test system: prostate cancer cells (PC-3); settings: 3.5 mM substrate, aspartate added, 14.1 T, 37° C., FIG. 3
Description: 10 million prostate cancer cells (PC-3) were harvested and redissolved in 500 μl phosphate buffer (PBS).
The acquisition was started just before injection of the hyperpolarized substrate.

aspartate transaminase = test: Aspartate transaminase conversion of hyperpolarized 1-13C-2-oxoglutarate to 1-13C-glutamate with or without co-substrate
Description: The sample was dissolved in 5 ml phosphate buffer (40 mM, pH 7.3) with addition of NaOH (8 μl, 12 M). The pH after dissolution was 7.3. From this hyperpolarized solution aliquots of 300 μl were taken and added one at a time to 5 mm NMR tubes (1-3) kept at 37° C. containing the following:
Tube 1: 2.5 μl (3.2 U) aspartate transaminase+100 μl (120 mM) glutamate+200 μl 40 mM phosphate buffer pH.7.3.
Tube 2: 2.5 μl (3.2 U) aspartate transaminase+100 μl (120 mM) aspartate+200 μl 40 mM phosphate buffer pH.7.3.
Tube 3: 2.5 μl (3.2 U) aspartate transaminase+300 μl (40 mM) phosphate buffer pH.7.3.
A low pulse angle experiment was performed (15 degree pulses every 0.5 s for 12 s). Following the end of the experiment the procedure was repeated for tube 2 and tube 3.

[7] = test system: PC-3, HEP-G2, PNT-1A and THLE-3 cells; test: UV assay of uptake and conversion of 2-oxoglutarate to glutamate in cancerous and normal cells; assay type: cell-based, human; settings: 20 mM 2-oxoglutarate, 20 mM aspartate as co-substrate, 30 minutes at 37° C., FIG. 2
Description: A combination of cellular uptake of 2-oxoglutarate and conversion of 2-oxoglutarate to glutamate was measured using a UV assay. Following incubation of the cells with 2-oxoglutarate for 30 minutes at 37° C. the cells were disrupted and a perchloric acid extract was made to precipitate the enzymes, whereafter the concentration of the formed product, glutamate, was measured.
The following UV assay for measuring glutamate production was applied.
The assay consists of two parts, as shown in the reaction scheme below. In the first part, glutamate is generated by incubating 0.5 million (0.5*10^6) viable cells with 20 mM 2-oxoglutarate and 20 mM aspartate for 30 minutes at 37° C. In the second part the glutamate concentration is measured using commercially available GDH (glutamate dehydrogenase) enzyme to generate 2-oxoglutarate and NADH. The latter is an unfavorable reaction and the reaction is therefore forced in this direction by trapping of the produced NADH in the INT (Iodonitrotetrazolium) reaction.
Reaction scheme for the assay determining glutamate concentration from cells incubated with 2-oxoglutarate. GDHcell refer to the cellular presence of glutamate dehydrogenase which will convert 2-oxoglutarate to glutamate when 2-oxoglutarate is incubated with whole cells in the first part of the assay. […]

PC-3 cells [8] = test: Trypan blue staining, total cell number and viability of treated PC-3 cells; assay type: cell-based, human; settings: MS-275 0.5 μM 48 hours, Resveratrol 50 μM 48 hours
Description: (§5) PC-3 cells: MS-275 0.5 μM, for 48 hours; Resveratrol 50 μM for 48 hours. The treatment protocols were evaluated with a standard cellular method, trypan blue staining which provide the total cell numbers and cell viability.

PC-3 cells [9] = test: UV assay of 2-oxoglutarate conversion in treated PC-3 cells; assay type: cell-based, human; settings: MS-275 0.5 μM 48 hours, Resveratrol 50 μM 48 hours, FIG. 9
Description: as §3
PC-3 cells: MS-275 0.5 μM, for 48 hours; Resveratrol 50 μM for 48 hours.
as §4

[10] = Hydrolysis of hyperpolarized 2-oxoglutaric-(1)-ethyl ester upon dissolution (13C-NMR); assay type: physicochemical; settings: after 15 s; dissolved in D2O with added NaOH, pH 11
Description: 2-oxoglutaric-(1)-ethyl ester (31 mg, 0.18 mmol) was added to an Eppendorf tube and mixed with 0.7 mg (0.45 μmol) of the carboxylic acid form of the finland radical (tris{8-carboxyl-2,2,6,6-tetramethyl-benzo(1,2-d:4,5-dS)bis(1,3)dithiole-4-yl}methyl, carboxylic acid form). […]. The ethyl ester formed a glass upon rapid freezing. […] […]. The sample was hyperpolarized for 90 min.
The sample was dissolved in 6 ml D2O with added NaOH (35 μl of 10 M). […] The ester was hydrolyzed up to at least 95%, after 15 s. The 2-oxoglutaric-(1)-ethyl ester was easily hydrolyzed to 2-oxoglutarate during the time of the experiment.

[11] = Trypan blue staining, total cell number and viability of treated PC-3 cells; assay type: cell-based, human; settings: human, MS-275 0.5 μM 48 hours, Resveratrol 50 μM 48 hours
Description: as §5

CNC(=O)c1cc(Oc2ccc(NC(=O)Nc3ccc(Cl)c(C(F)(F)F)c3)cc2)ccn1 [Sorafenib, sorafenib]
Cell number (Morris7777 cells [1]): 8 million
viability [2]: > 89%
conversion of 2-oxoglutarate to glutamate in comparison to untreated cells (control) (Morris7777 cells [3]): no change

COc1cc([C@@H]2c3cc4c(cc3[C@@H](O[C@@H]3O[C@@H]5CO[C@@H](C)O[C@H]5[C@H](O)[C@H]3O)[C@H]3COC(=O)[C@H]23)OCO4)cc(OC)c1O [Etoposide, etoposide]
Cell number (Morris7777 cells [1]): 5.5 million
viability [2]: < 85%
signal of hyperpolarized 1-13C-glutamate post therapy compared to pre therapy [4]: increases two times
conversion of 2-oxoglutarate to glutamate in comparison to untreated cells (control) (Morris7777 cells [3]): higher

1-^13C-2-oxoglutaric acid [hyperpolarized 1-^13C-2-oxoglutarate]
produced hyperpolarized 1-13C-glutamate signal relative to 1-13C-lactate signal from hyperpolarized 1-13C-pyruvate [5]: more than 2 times
uptake and conversion into hyperpolarized 1-13C-glutamate [6]: taken up by PC-3 cells and converted into hyperpolarized 1-^13C-glutamate

O=C(O)CCC(=O)C(=O)O [2-oxoglutarate]
formation of glutamate product by aspartate transaminase (aspartate transaminase; no co-substrate (tube 3)): no product can be formed
conversion to glutamate by aspartate transaminase, aspartate versus glutamate as co-substrate (aspartate transaminase; tubes 1 and 2, 37° C., FIG. 1): the two amino acids are almost equally effective
conversion of 2-oxoglutarate in glutamate [7]: higher in carcinoma cells than in normal cells

Nc1ccccc1NC(=O)c1ccc(CNC(=O)OCc2cccnc2)cc1 [MS-275]
Cell number (PC-3 cells [8]): 4.5 million
conversion of 2-oxoglutarate to glutamate in comparison to untreated cells (control) (PC-3 cells [9]): no change

CCOC(=O)C(=O)CCC(=O)O [2-oxoglutaric-(1)-ethyl ester]
ester hydrolyzed to 2-oxoglutarate [10]: at least 95%

Oc1ccc(C=Cc2cc(O)cc(O)c2)cc1 [Resveratrol]
Cell number (PC-3 cells [8]): 1.7 million
viability at 48 h [11]: > 94%
conversion of 2-oxoglutarate to glutamate in comparison to untreated cells (control) (PC-3 cells [9]): higher

From patent US20150273086A1, “HYPERPOLARIZED 2-OXOGLUTARATE AS METABOLIC AGENT IN MR” (BRACCO IMAGING S.P.A., priority 2012, published 2015)
